Here are results for 16 compounds from PubChem BioAssay (NCI).

The structures appear in SMILES notation.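 All cell lines were grown in 96-well plates and treated with compound for 48 hours. GI50 is the concentration that inhibits growth by half. TGI is the concentration that stops growth completely.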

One assay deals with SK-MEL-5 melanoma. Kind of assay: DTP human tumour cell line panel, 48 h.
Take `CCC(C)(C)c1ccc(OCCCCCCN2CCNCC2)cc1`: the GI50 (in general, the concentration giving 50% growth inhibition) is 1.76 µM and the TGI – broadly, the concentration giving total growth inhibition – is 3.24 µM.

Regarding `Cc1cc(S(=O)(=O)N/N=C(\Sc2cc(Cl)c(C)cc2S(N)(=O)=O)c2ccc(Cl)cc2)c(Cl)cc1Cl`, the GI50 is over 100 µM and the concentration for total growth inhibition (TGI) was over 100 µM.

In the case of `COc1ccc(C(=O)COc2cccc(/C=C3\Oc4ccc5ccccc5c4C3=O)c2)cc1`, the GI50 is 10.9 µM and the TGI is 23.9 µM.

On to `COc1ccc(-c2oc3cc(O)c(OC)c(O)c3c(=O)c2OC)cc1O`, for which the GI50 is 0.0786 µM and the concentration for total growth inhibition (TGI) was 2.67 µM.

Regarding `CCn1c(CO)nn(-c2cc(O[C@@H](C)C(F)(F)F)c(C(=O)Nc3c(F)cccc3Cl)cc2F)c1=O`, the concentration for 50% growth inhibition (GI50) is under 0.0152 µM and the concentration for total growth inhibition (TGI) was over 39.1 µM.

As to `Cc1cc(C2CC(O)C(CO)O2)cc2c(=O)[nH]c(N)nc12` (stereo not drawn), the GI50 is over 100 µM and the TGI is over 100 µM.

Take `COc1cc(C2=C(c3cn(C)c4ccccc34)COC2=O)cc(OC)c1OC`: the concentration for 50% growth inhibition (GI50) is 0.0773 µM and the total growth inhibition concentration (TGI) was found to be 1.4 µM.

For the compound `COc1ccc(Nc2c3ccccc3nc3occ(Cl)c23)cc1`, the GI50 was under 0.01 µM and the TGI is 0.521 µM.

Take `Cc1ccc(S(=O)(=O)NCCNc2nccc(-c3c(-c4ccc(F)cc4)nc4sccn34)n2)cc1`: the GI50 is 3.52 µM and the TGI is over 100 µM.

In the case of `O=C(CSC(c1ccccc1)c1ccccc1)N/N=C/c1ccc(Cl)cc1Cl`, the GI50 is 18.1 µM and the TGI stood at 32.7 µM.

The subject of the next assay is LOX IMVI melanoma. Kind of assay: DTP human tumour cell line panel, 48 h.
As for `N#C/C(=C/N1CCN(C(=O)c2ccco2)C1=S)C(=O)c1ccccc1`, the GI50 is 17.9 µM and the concentration for total growth inhibition (TGI) is over 100 µM.

Turning to `Nc1nc(SN=Nc2ccc(S(N)(=O)=O)cc2)c2[nH]cnc2n1`, the GI50 is 0.219 µM and the TGI is 12.6 µM.

For `COCCOc1cnc2ccn([C@H](C)c3nnc4c(F)cc(-c5cnn(C)c5)cn34)c(=O)c2c1`, the GI50 is over 100 µM and the TGI was over 100 µM.

With `CCc1ccccc1NC(=O)c1sc2nc3c(cc2c1N)C(=O)CCC3`, the GI50 was 0.669 µM and the concentration for total growth inhibition (TGI) was over 100 µM.

In turn, `CC(C)CNC(=O)O` registered a TGI of over 100 µM.

With `C[C@]12CC[C@@H]3c4ccc(O)cc4CC[C@H]3[C@@H]1CC[C@@H]2NS(=O)(=O)c1cccc(F)c1`, the GI50 is 3.09 µM and the TGI amounted to 10.8 µM.

For the compound `CCC(C)(C)c1ccc(OCCCCCCN2CCNCC2)cc1`, the GI50 is 1.76 µM and the TGI was 3.21 µM.

Regarding `Cc1cc(S(=O)(=O)N/N=C(\Sc2cc(Cl)c(C)cc2S(N)(=O)=O)c2ccc(Cl)cc2)c(Cl)cc1Cl`, the GI50 is 30.8 µM and the concentration for total growth inhibition (TGI) was found to be 99.6 µM.

As to `COc1ccc(C(=O)COc2cccc(/C=C3\Oc4ccc5ccccc5c4C3=O)c2)cc1`, the GI50 was 1.56 µM and the total growth inhibition concentration (TGI) turned out to be 3.08 µM.

As to `COc1ccc(-c2oc3cc(O)c(OC)c(O)c3c(=O)c2OC)cc1O`, the GI50 is 0.0766 µM and the TGI was over 100 µM.

On to `CCn1c(CO)nn(-c2cc(O[C@@H](C)C(F)(F)F)c(C(=O)Nc3c(F)cccc3Cl)cc2F)c1=O`, for which the concentration for 50% growth inhibition (GI50) was under 0.01 µM.

On to `Cc1cc(C2CC(O)C(CO)O2)cc2c(=O)[nH]c(N)nc12` (stereo not drawn), for which the GI50 is over 100 µM and the TGI was over 100 µM.

For the compound `Cc1ccc(S(=O)(=O)NCCNc2nccc(-c3c(-c4ccc(F)cc4)nc4sccn34)n2)cc1`, the GI50 is 4.86 µM and the TGI is over 100 µM.

As to `O=C(CSC(c1ccccc1)c1ccccc1)N/N=C/c1ccc(Cl)cc1Cl`, the GI50 is 27.1 µM and the TGI worked out at 97.4 µM.

A further assay relates to IGROV1 ovarian. The experiment in a line: DTP human tumour cell line panel, 48 h.
On to `N#C/C(=C/N1CCN(C(=O)c2ccco2)C1=S)C(=O)c1ccccc1`, for which the GI50 was 19.4 µM and the total growth inhibition concentration (TGI) was 70.7 µM.

On to `Nc1nc(SN=Nc2ccc(S(N)(=O)=O)cc2)c2[nH]cnc2n1`, for which the GI50 was 1.65 µM and the concentration for total growth inhibition (TGI) was over 100 µM.

For `COCCOc1cnc2ccn([C@H](C)c3nnc4c(F)cc(-c5cnn(C)c5)cn34)c(=O)c2c1`, the GI50 was over 100 µM and the total growth inhibition concentration (TGI) is over 100 µM.

With `CCc1ccccc1NC(=O)c1sc2nc3c(cc2c1N)C(=O)CCC3`, the GI50 was 15.5 µM and the TGI was over 100 µM.

Compound `CC(C)CNC(=O)O` yielded a TGI of over 100 µM.

For the compound `C[C@]12CC[C@@H]3c4ccc(O)cc4CC[C@H]3[C@@H]1CC[C@@H]2NS(=O)(=O)c1cccc(F)c1`, the GI50 is 5.42 µM and the TGI stood at 21.8 µM.

In the case of `CCC(C)(C)c1ccc(OCCCCCCN2CCNCC2)cc1`, the GI50 is 2.63 µM and the total growth inhibition concentration (TGI) is 7.29 µM.

With `Cc1cc(S(=O)(=O)N/N=C(\Sc2cc(Cl)c(C)cc2S(N)(=O)=O)c2ccc(Cl)cc2)c(Cl)cc1Cl`, the GI50 is 70.2 µM and the concentration for total growth inhibition (TGI) is over 100 µM.

On to `CCn1c(CO)nn(-c2cc(O[C@@H](C)C(F)(F)F)c(C(=O)Nc3c(F)cccc3Cl)cc2F)c1=O`, for which the concentration for 50% growth inhibition (GI50) was under 0.0113 µM and the TGI was over 100 µM.

Take `Cc1cc(C2CC(O)C(CO)O2)cc2c(=O)[nH]c(N)nc12` (stereo not drawn): the GI50 is 71 µM and the TGI is over 100 µM.

Take `COc1cc(C2=C(c3cn(C)c4ccccc34)COC2=O)cc(OC)c1OC`: the concentration for 50% growth inhibition (GI50) was 0.0771 µM and the TGI came to 21.7 µM.

`COc1ccc(Nc2c3ccccc3nc3occ(Cl)c23)cc1`: the GI50 is 0.0634 µM and the TGI was over 77.2 µM.

As for `Cc1ccc(S(=O)(=O)NCCNc2nccc(-c3c(-c4ccc(F)cc4)nc4sccn34)n2)cc1`, the GI50 was 3.09 µM and the TGI was over 100 µM.

For `O=C(CSC(c1ccccc1)c1ccccc1)N/N=C/c1ccc(Cl)cc1Cl`, the GI50 is 19.9 µM and the concentration for total growth inhibition (TGI) turned out to be 53.5 µM.
